{"source": "patent US20230000813A1", "about": "“COMPOUND FOR THE TREATMENT OF BOVINE OR SWINE RESPIRATORY DISEASE” (Intervet Inc., priority 2016, published 2023)", "key": {"[1]": {"test_system": "M. haemolytica M7/2, serotype A:1, ID 6357", "assay": "Mannheimia haemolytica cattle lung infection model, efficacy (Example 8)", "assay_type": "in vivo, Holstein black pied cattle calves", "parameters": "key to General behavior, score: 0 = normal; 1 = slightly depressive; 2 = moderately depressive; 3 = highly depressive; 4 = recumbency; key to Re-isolation of bacteria, Left Bronchial swab / Re-isolation of bacteria, Right Bronchial swab: − no bacterial growth; + low; ++ medium; +++ high amount of bacterial growth", "details": "for Food consumption, cumulated for all animals in the group: 3 calves; for Lung score (including grade and percent Lung consolidation): grade of consolidation 0 to 3", "method": "15 male Holstein black pied cattle calves of ca. 4 months age were randomly assigned to the study groups ensuring an equal distribution of body weight. The animal weight was approximately 98-133.5 kg on D-1.\nCalves were infected on Day 0 via intratracheal instillation of approximately 300 mL of a M. haemolytica PBS suspension containing approximately 3×10^9 CFU M. haemolytica in late log phase.\nThree animals each were treated one hour after infection by subcutaneous (SC) administration of Compound 329 in an aqueous 30% (w/v) Captisol® solution for injection at a dose of 10 mg/kg BW.\nThe respective dose volume was injected on the sides of the thoracic wall. Injection volumes exceeding 10 mL were divided into one portion of 10 mL administered to the left side and the remaining rest administered at different injection sites on the other side. Animals in one control group were treated with a commercially available Enrofloxacin solution (Baytril ® 10%, Bayer Animal Health) at the recommended dose of 10 mg/kg BW. The second control group was treated with the galenic diluent (30% (w/v) Captisol®, dissolved in water) as placebo.\nFood consumption was measured. Single individual blood samples were collected from the 12 animals at the following time points: D-1 (predose), 30 minutes, 2, 4, 6, 24 h and at D2 (ca. 45 h) after administration. After the day 2 blood sampling, the infected cattle were slaughtered. The lungs were weighted. Lung states and lung scores were observed morphologically.\nAt necropsy from animals treated with test items or the positive control, samples of epithelial lining fluid (ELF), lung tissue, and additionally tissue of liver and kidney were collected. From each lung two bacteriological swaps were taken from the left and right bronchus.\nFrom each lung two tissue samples were collected by clipping from at least two locations, one from morphologically unchanged tissue, one from the edge of pathomorphologically changed areas."}, "[2]": {"test_system": "M. haemolytica M7/2", "assay": "Mannheimia haemolytica cattle lung infection model, efficacy (Example 9)", "assay_type": "in vivo, cattle calves", "details": "3 calves, SC 10 mg/kg BW", "method": "Unless otherwise described the study was conducted as described in Example 8.\n(§1) Calves were infected via intratracheal instillation of appr. 300 mL of M. haemolytica PBS suspension containing approximately 4×10^9 CFU M. haemolytica in late log phase on Day 0.\n(§2) The following clinical findings were recorded: The general behavior scores of the animals before (DO am) and after infection with M. haemolytica in the different treated and control groups are indicated in FIG. 7-1: 0 =normal; 1=slightly depressive, 2=moderately depressive, 3=highly depressive, 432 recumbency.\nThe following pathomorphological findings after section on Day 2 were recorded: After measuring the body weight and the lung weight the Lung body mass ratio was calculated as shown in FIG. 7-2. A healthy animal has a lung body mass ration around 1.7 or lower. The area percentage of lung consolidations compared to the total lung tissue and the lung score determined that is a combined score of such percentage of lung consoldiations and the grade. For the “grade” the degree of lung consolidation score was graded from 0 to 3 for each of eight lung lobes: 0 no visible changes, 1 low graded colour changes or induration, 2 medium graded induration, 3 high graded induration, hepatisation, necrosis.\nThe geometrical means (CFU/g tissue) of bacteriological re-isolations of Mannheimia haemolytica from lung tissue are illustrated in FIG. 7-4."}, "[3]": {"test_system": "M. haemolytica", "assay": "Mannheimia haemolytica cattle lung infection model, efficacy (Example 10)", "assay_type": "in vivo, cattle calves", "details": "3 calves, 10 mg/kg", "method": "Unless otherwise described the study was conducted as described in Clinical Example 8\nas §1\nOne hour later three animals each were treated with 10 mg/kg of Compound 231(referred to as C. 231) (80 mg/mL in 10% Poloxamer 188), or 10 mg/kg or 5 mg/kg Compound 329 (referred to as C. 329) (150 mg/mL in 35% Cavitron).\nas §2, with “8-1: 0=normal;” for “7-1: 0 =normal;”, “4=recumbency.” for “432 recumbency.”\nThe following pathomorphological findings after section on Day 2 were recorded: After measuring the body weight and the lung weight the Lung body mass ratio was calculated as shown in FIG. 8-2. A healthy animal has a lung body mass ration around 1.7 or lower. The area percentage of lung consolidations compared to the total lung tissue and the lung score determined that is a combined score of such percentage of lung consoldiations and the grade. For the “grade” the degree of lung consolidation score was graded from 0 to 3 for each of eight lung lobes: 0 no visible changes, 1 low graded colour changes or induration, 2 medium graded induration, 3 high graded induration, hepatisation, necrosis.\nThe geometrical means (CFU/g tissue) of bacteriological re-isolations of Mannheimia haemolytica from lung tissue are illustrated in FIG. 8-4."}, "[4]": {"details": "section on day 2, infected calves, SC 10 mg/kg, individual animals and mean, 10 mg/kg"}, "[5]": {"details": "section on day 2, infected calves, SC 10 mg/kg, individual animals and mean, 10 mg/kg, mean"}, "[6]": {"details": "section on day 2, infected calves, SC single 10 mg/kg, individual animals"}, "[7]": {"details": "D 0 am, after infection and treatment"}}, "note": "Where “and” joins values, the source holds several entries; their conditions need not be identical. Equal values may be shown once.", "data": [{"smiles": "CCN1CCN(c2cc3c(cc2F)c(=O)c(C(=O)O)cn3C2CC2)CC1", "note": "[Enrofloxacin, reference compound]", "values": [{"measurement": "General behavior, score", "setting": "[1]; D 0 am (before infection), calves, SC 10 mg/kg, individual animals and mean, 10 mg/kg", "value": 0}, {"measurement": "General behavior, score", "setting": "[1]; D 0 am (before infection), calves, SC 10 mg/kg, individual animals and mean, 10 mg/kg, mean", "value": 0.0, "unit": "score"}, {"measurement": "Food consumption, cumulated for all animals in the group", "setting": "[1]; D 0 am, after infection and treatment, SC 10 mg/kg", "value": 660, "unit": "g"}, {"measurement": "Food consumption, cumulated for all animals in the group", "setting": "[1]; D 0 pm, SC 10 mg/kg", "value": 4800, "unit": "g"}, {"measurement": "General behavior, score", "setting": "[1]; D 0 pm, calves infected with M. haemolytica, SC 10 mg/kg 1 h after infection, individual animals and mean, 10 mg/kg", "value": 0}, {"measurement": "General behavior, score", "setting": "[1]; D 0 pm, calves infected with M. haemolytica, SC 10 mg/kg 1 h after infection, individual animals and mean, 10 mg/kg, mean", "value": 0.0, "unit": "score"}, {"measurement": "General behavior, score", "setting": "[1]; D 1 am, calves infected with M. haemolytica, SC 10 mg/kg 1 h after infection, individual animals and mean, 10 mg/kg", "value": 0}, {"measurement": "General behavior, score", "setting": "[1]; D 1 am, calves infected with M. haemolytica, SC 10 mg/kg 1 h after infection, individual animals and mean, 10 mg/kg, mean", "value": 0.0, "unit": "score"}, {"measurement": "General behavior, score", "setting": "[1]; D 1 pm, calves infected with M. haemolytica, SC 10 mg/kg 1 h after infection, individual animals and mean, 10 mg/kg", "value": 0}, {"measurement": "General behavior, score", "setting": "[1]; D 1 pm, calves infected with M. haemolytica, SC 10 mg/kg 1 h after infection, individual animals and mean, 10 mg/kg, mean", "value": 0.0, "unit": "score"}, {"measurement": "General behavior, score", "setting": "[1]; D 2 am, calves infected with M. haemolytica, SC 10 mg/kg 1 h after infection, individual animals and mean, 10 mg/kg", "value": 0}, {"measurement": "General behavior, score", "setting": "[1]; D 2 am, calves infected with M. haemolytica, SC 10 mg/kg 1 h after infection, individual animals and mean, 10 mg/kg, mean", "value": 0.0, "unit": "score"}, {"measurement": "Food consumption, cumulated for all animals in the group", "setting": "[1]; D +1 am, SC 10 mg/kg", "value": 4800, "unit": "g"}, {"measurement": "Food consumption, cumulated for all animals in the group", "setting": "[1]; D +1 pm, SC 10 mg/kg", "value": 4800, "unit": "g"}, {"measurement": "Food consumption, cumulated for all animals in the group", "setting": "[1]; D −1 (before infection), SC 10 mg/kg", "value": 4800, "unit": "g"}, {"measurement": "mean bacterial re-isolation", "setting": "[1]; infected calves, SC 10 mg/kg, in words", "value": "Very low"}, {"measurement": "Lung score (including grade and percent Lung consolidation)", "setting": "[1]; [4]", "value": "21.2 and 16.9 and 20.4"}, {"measurement": "Lung score (including grade and percent Lung consolidation)", "setting": "[1]; [5]", "value": 19.5}, {"measurement": "Lung consolidations", "setting": "[1]; [4]", "value": "13.0% and 10.8% and 15.3%"}, {"measurement": "Lung weight", "setting": "[1]; [4]", "value": "1334 g and 1765 g and 1429 g"}, {"measurement": "Lung/body weight ratio", "setting": "[1]; [4]", "value": "~1.3% and 1.31% and 1.34% and 1.21% and 1.29%"}, {"measurement": "Lung consolidations", "setting": "[1]; [5]", "value": 13.0, "unit": "%"}, {"measurement": "Lung weight", "setting": "[1]; [5]", "value": 1509, "unit": "g"}, {"measurement": "Re-isolation of bacteria, Left Bronchial swab", "setting": "[1]; [6]", "value": "−"}, {"measurement": "Re-isolation of bacteria, Right Bronchial swab", "setting": "[1]; [6]", "value": "−"}, {"measurement": "Food consumption, cumulated for all animals in the group", "setting": "[2]; [7]", "value": 4027, "unit": "g"}, {"measurement": "Food consumption, cumulated for all animals in the group", "setting": "[2]; D 0 pm", "value": 4800, "unit": "g"}, {"measurement": "Food consumption, cumulated for all animals in the group", "setting": "[2]; D +1 am", "value": 4737, "unit": "g"}, {"measurement": "Food consumption, cumulated for all animals in the group", "setting": "[2]; D +1 pm", "value": 4800, "unit": "g"}, {"measurement": "Food consumption, cumulated for all animals in the group", "setting": "[2]; D −1 (before infection)", "value": 4800, "unit": "g"}, {"measurement": "Food consumption, cumulated for all animals in the group", "setting": "[3]; [7]", "value": 1667, "unit": "g"}, {"measurement": "Food consumption, cumulated for all animals in the group", "setting": "[3]; D 0 pm", "value": 4800, "unit": "g"}, {"measurement": "Food consumption, cumulated for all animals in the group", "setting": "[3]; D +1 am", "value": 4800, "unit": "g"}, {"measurement": "Food consumption, cumulated for all animals in the group", "setting": "[3]; D +1 pm", "value": 4800, "unit": "g"}, {"measurement": "Food consumption, cumulated for all animals in the group", "setting": "[3]; D −1 (before infection)", "value": 4800, "unit": "g"}]}]}
